Data as given in patent US20130289112A1, “SALTS OF KUKOAMINE B, PREPARATION METHOD AND USE THEREOF” (priority 2010, published 2013).
Structures can show the parent of a compound that is named as a salt.

Legend:
[1] = Neutralizing test on LPS in vitro (kinetic turbidimetric limulus test); assay type: biochemical; conditions: 20 μM solution mixed with equal volume of LPS 0.25 ng/ml, 37° C. 30 min, TAL reagent; FIG. 2
Experimental: 16.1 Methods: The neutralizing test is carried out according to the manufacturer's instructions of 32 Well Kinetic Tube Reader (ATi321-06) endotoxin detector, which mainly comprises the following steps:
(§1) (1) Each of the salts, including kukoamine B hydrochlorate, kukoamine B hydrobromide, kukoamine B sulfate, kukoamine B phosphate, kukoamine B acetate, kukoamine B maleate, kukoamine B succinate, kukoamine B malate, kukoamine B lactate, kukoamine B tartrate, kukoamine B methanesulfonate, kukoamine B p-toluenesulfonate, kukoamine B glutamate, and kukoamine B aspartate, is prepared into 20 μM solution with nonpyrogenic water, respectively;
(2) 100 μl of each of the solution obtained in step (1) is separately mixed with equal volume of LPS solution (0.25 ng/ml). At the same time, the control group is established, which is a mixed solution containing 100 μl of nonpyrogenic water and equal volume of LPS solution (0.25 ng/ml). The LPS group and control group are incubated at 37° C. for 30 min. Then, 100 μl of the reaction solutions of LPS group and control group are separately added into a detector tube containing 100 μl of TAL reagents, and LPS value of each group are detected by kinetic turbidimetric limulus test according to the manufacturer's instructions of 32 Well Kinetic Tube Reader (ATi321-06) Bacterial Endotoxin Detection system. The test of each concentration is repeated three times;

RAW264.7 cells [2] = experiment: Inhibition of release of inflammatory mediators (TNF-α) in RAW264.7 cells induced by CpG DNA; assay type: cell-based; conditions: CpG DNA 10 μg/ml, salt 0, 50, 100, 200 μM, 4 h, ELISA, FIG. 4
Experimental: (§2) 18.1 Methods: RAW264.7 cells are diluted to 1×10^6/ml in DMEM culture medium, added into a 96-well cell culture plate (200 μl per well), and incubated at 37° C. in a 5% CO2 humidified incubator for 4 h, and then the supernatant is replaced with 200 μl of serum-free DMEM culture medium after cells attachment. Next, each well is added with CpG DNA (final concentration of 10 μg/ml ), and then added with one of the salts of kukoamine B (including kukoamine B malate, kukoamine B succinate, kukoamine B lactate, kukoamine B tartrate, kukoamine B methanesulfonate, kukoamine B p-toluenesulfonate, kukoamine B glutamate, kukoamine B acetate, kukoamine B hydrochlorate, and kukoamine B sulfate) to obtain the final concentration of 0, 50, 100, and 200 μM, respectively. The control group contains no CpG DNA. Then, the incubation goes on for 4 h. The supernatant is collected to measure the concentration of TNF-α according to the manufacturer's instructions of ELISA kit.

RAW264.7 cells [3] = experiment: Inhibition of release of inflammatory mediators (TNF-α) in RAW264.7 cells induced by LPS; assay type: cell-based; conditions: LPS 100 ng/ml, salt 0, 50, 100, 200 μM, 4 h, ELISA, FIG. 3
Experimental: as §2, with “17.1” for “18.1”, “LPS” for “CpG DNA”, “100 ng/ml),” for “10 μg/ml ),”, “LPS.” for “CpG DNA.”

[4] = Affinity assay of salts of kukoamine B with lipid A (IAsys plus Affinity Sensor); assay type: binding; conditions: 1 mg in 1 ml PBS (0.01 M, pH 7.4), 5 μl added to cuvette with 45 μl PBS, immobilized lipid A, 3 min; curves in FIG. 1
Experimental: 15.1 Methods: The affinity assay is carried out according to the methods disclosed in the Chinese patent titled “Use of an active ingredient or active substance selected and isolated from traditional Chinese herbs in the preparation of drugs for treating sepsis” (Chinese patent Number ZL 200510070677.3) granted to the applicant, which mainly comprises the following steps:
(1) Lipid A is immobilized on the reacting surfaces of non-derivative cuvettes according to the instructions of immobilization of lipid in the manufacturer's instructions of IAsys plus Affinity Sensor. Wherein, the end of hydrophobic side chain of lipid A was immobilized on cuvette, and the hydrophilic end is floating outside, which act as target site of binding reaction;
as §1, with “(2) 1 mg of each” for “(1) Each”, “fully dissolved by 1 ml of PBS” for “prepared into 20 μM”, “(0.01 M, pH 7.4),” for “with nonpyrogenic water,”
(3) 5 μl of each of the solution obtained in step (2) is added into the affinity sensor's cuvettes (containing 45 μl of PBS solution) previously immobilized with lipid A to carry out the reaction, respectively;
(4) The binding reaction is carried out for 3 min, and the binding curves are recorded;
(5) Each of the cuvettes is washed with 50 μl of PBS solution for 3 times, and dissociation curves are recorded;
(6) Each of the cuvettes is washed with 0.1 M HCl solution for 3 times, and the regeneration curves are recorded.

sepsis model of mice = experiment: Protective effect in the sepsis model of mice (cecal ligation and puncture, CLP); assay type: in vivo, Balb/c mice; conditions: 7 days; for survival rate of mice: combination with antibiotic (ampicillin sodium-sulbactam sodium 80 mg/kg), salt 2.5 mg/kg through tail vein at 0-68 hours after surgery; for protective effect to the sepsis model of mice: salt 2.5 mg/kg tail vein combined with antibiotic, FIG. 5
Description: 19.1 Methods: 120 Balb/c mice, each of 19-21 g, half of which being male and half female, are divided into six groups randomly, including control group, antibiotic group, antibiotic and kukoamine B hydrochlorate group, antibiotic and kukoamine B methanesulfonate group, antibiotic and kukoamine B p-toluenesulfonate group, and antibiotic and kukoamine B benzene sulfonate group. Each group contains 20 mice. The mice are narcotized with anesthesia machine; the vapor concentration of isoflurane is 5%; the pressure of the mixed gas is 1 MPa; anesthesia time is about 5 min. The mice model are setup by cecal ligation and puncture (CLP) comprising the following steps: the mice are maintained in supine position, and the abdomen skin is disinfected with iodophor; the skin, muscular layer and peritoneum below the midpoint of linea alba 0.3 cm are cut open with ophthalmic scissors (the length of the incisions is 0.8 CM); the muscular layer is picked up with ophthalmic forceps, and the enterocoelia is explored with ophthalmic forceps; the cecum is pulled out and ligated with No. 4 suture at 0.5 CM from the end of cecum; then, the cecum is vertically punctured with No. 12 needle, and squeezed to extrude contents; finally, the cecum is put back and the incision is stitched. Thereafter, the mice in control group are injected with 0.2 ml of sterile saline through tail vein; the mice in antibiotic group are injected with antibiotic (ampicillin sodium-sulbactam sodium) at a dosage of 80 mg/kg body weight through tail vein at 4 hours after surgery; the mice in other four groups are separately injected with kukoamine B hydrochlorate, kukoamine B methanesulfonate, kukoamine B p-toluenesulfonate and kukoamine B benzene sulfonate at a dosage of 2.5 mg/kg body weight at a time through tail vein at 0, 4, 12, 20, 28, 36, 44, 52, 60 and 68 hours after surgery.

| Compound | neutralization of LPS in vitro [1] | inhibition of the release of TNF-α induced by CpG DNA (RAW264.7 cells [2]) | inhibition of the release of TNF-α induced by LPS (RAW264.7 cells [3]) | binding reaction with lipid A [4] | survival rate of mice (sepsis model of mice) [%] | protective effect to the sepsis model of mice (sepsis model of mice) | comparison of protective effect among the salts (sepsis model of mice; four salts compared) |
| --- | --- | --- | --- | --- | --- | --- | --- |
| CC(=O)O.NCCCN(CCCCNCCCNC(=O)CCc1ccc(O)c(O)c1)C(=O)CCc1ccc(O)c(O)c1 [kukoamine B acetate] | can neutralize LPS in vitro | can inhibit the release of TNF-α | can inhibit the release of TNF-α | can bind with lipid A | – | – | – |
| NCCCN(CCCCNCCCNC(=O)CCc1ccc(O)c(O)c1)C(=O)CCc1ccc(O)c(O)c1 [kukoamine B hydrobromide] | can neutralize LPS in vitro | – | – | can bind with lipid A | – | – | – |
| NCCCN(CCCCNCCCNC(=O)CCc1ccc(O)c(O)c1)C(=O)CCc1ccc(O)c(O)c1 [kukoamine B hydrochlorate] | – | – | – | – | 20 | have protective effects to the sepsis model of mice | – |
| CC(O)C(=O)O.NCCCN(CCCCNCCCNC(=O)CCc1ccc(O)c(O)c1)C(=O)CCc1ccc(O)c(O)c1 [kukoamine B lactate] | can neutralize LPS in vitro | can inhibit the release of TNF-α | can inhibit the release of TNF-α | can bind with lipid A | – | – | – |
| NCCCN(CCCCNCCCNC(=O)CCc1ccc(O)c(O)c1)C(=O)CCc1ccc(O)c(O)c1 [kukoamine B malate] | – | can inhibit the release of TNF-α | can inhibit the release of TNF-α | – | – | – | – |
| CS(=O)(=O)O.NCCCN(CCCCNCCCNC(=O)CCc1ccc(O)c(O)c1)C(=O)CCc1ccc(O)c(O)c1 [kukoamine B methanesulfonate] | can neutralize LPS in vitro | can inhibit the release of TNF-α | can inhibit the release of TNF-α | can bind with lipid A | 50 | have protective effects to the sepsis model of mice | has the best effect |
| Cc1ccc(S(=O)(=O)O)cc1.NCCCN(CCCCNCCCNC(=O)CCc1ccc(O)c(O)c1)C(=O)CCc1ccc(O)c(O)c1 [kukoamine B p-toluenesulfonate] | can neutralize LPS in vitro | can inhibit the release of TNF-α | can inhibit the release of TNF-α | can bind with lipid A | 20 | have protective effects to the sepsis model of mice | – |
| kukoamine B benzene sulfonate | – | – | – | – | 30 | have protective effects to the sepsis model of mice | – |
